# Where two headings read alike, the source gives them in different places.
# Columns and labels:
# [1] = Cytotoxicity (CC50) in TZM-bl cells; assay type: cell-based; details: human; TZM-bl cells (Table 3); read-out: CC50
# HIV-1SF162 virus strain [2] = experiment: Inhibition of viral replication in PBMC infected with HIV-1SF162; assay type: cell-based
# Description: (§1) The virus was titrated according to the modified method of Johnson & Byington. Briefly, the HIV-1 stock solution was subject to four-fold dilution in a 96-well plate (ten gradients) sextuplicate for each gradient, while setting six control-wells. Into each well was added 100 μl (5×10^6/ml) PHA-stimulated PBMC cells and final volume per well was 200 μl. The cells were cultured at 37° C. with 5% CO2. […] On the seventh day, the infected supernatant was collected and lysed with 0.5% Triton X100. The p24 antigen was detected by ELISA and TCID50 of virus was calculated according to Reed & Muench method (50% Tissue culture infection dose).
# (§2) The starting concentration was 1 μM, six dilutions were obtained, and each well contained 200 μl mixture. While wells not containing drugs were set as control. […] After homogeneously mixed, the mixture was immediately added to 48-well plate containing diluted drug and each well was added with 200 μl of mixture. MVC was used as positive control. The cells were cultured at 37° C. with 5% CO2 for seven days (drug with the same concentration was added on the third day). The supernatant was collected, lysed and inactivated with 0.5% Triton X-100. The inhibition effect of drug on HIV-1 replication was detected using p24 antigen capture ELISA method.
# HIV-1KM018 virus strain = experiment: Inhibition of viral replication in PBMC infected with HIV-1KM018; assay type: cell-based
# Description: as §1, §2
# HIV-1Ba-L virus strain [3] = experiment: Inhibition of viral replication in PBMC infected with HIV-1Ba-L; assay type: cell-based
# Description: The virus was titrated according to the modified method of Johnson & Byington. Briefly, the HIV-1 stock solution was subject to four-fold dilution in a 96-well plate (ten gradients) sextuplicate for each gradient, while setting six control-wells. Into each well was added 100 μl (5×10^6/ml) PHA-stimulated PBMC cells and final volume per well was 200 μl. The cells were cultured at 37° C. with 5% CO2. On the third day, 100 μl of fresh RPMI-1640 complete medium was supplemented. On the seventh day, the infected supernatant was collected and lysed with 0.5% Triton X100. The p24 antigen was detected by ELISA and TCID50 of virus was calculated according to Reed & Muench method (50% Tissue culture infection dose).
# The compound to be tested was subject to 5-fold dilution in 48-well plate with RPMI-1640 complete medium (containing 10% FBS). The starting concentration was 1 μM, six dilutions were obtained, and each well contained 200 μl mixture. While wells not containing drugs were set as control. Virus (MOI=0.01) was added to 5×10^6/ml of PBMC cells which have been stimulated by PHA for 72 h. After homogeneously mixed, the mixture was immediately added to 48-well plate containing diluted drug and each well was added with 200 μl of mixture. MVC was used as positive control. The cells were cultured at 37° C. with 5% CO2 for seven days (drug with the same concentration was added on the third day). The supernatant was collected, lysed and inactivated with 0.5% Triton X-100. The inhibition effect of drug on HIV-1 replication was detected using p24 antigen capture ELISA method.
# [4] = Toxicity test of compounds on PBMC cells (MTT); assay type: cell-based; details: human, PBMC cells (Table 4)
# Description: (§3) The compound to be tested was subject to 5-fold dilution in a 96-well microtiter plate with RPMI-1640 or DMEM complete medium (containing 10% FBS) (Six dilution) triplicate for each dilution and 100 μl for each well. While wells not containing drugs were set as control. Into each well was added 100 μl of 4×10^5/ml PM1, HOS-CD4-CCR5 cells or 100 μl of 5×10^6/ml PHA stimulated PBMC. The cells were cultured at 37° C. with 5% CO2 for three days (PBMC cells were cultured for seven days and 100 μl of fresh RPMI-1640 complete medium was supplemented on the third day). Cytotoxicity was tested with MTT assay. OD values were measured by ELx800 microplate reader. The detection wavelength was 570 nm, and the reference wavelength was 630 nm.
# HIV-1Ba-L virus strain [5] = experiment: Inhibition of viral replication in HOS-CD4-CCR5 cells infected with HIV-1Ba-L; assay type: cell-based
# Description: (§4) On the day before the test, 1×10^5/ml of HOS-CD4-CCR5 cells were inoculated in 96-well plates with 100 μl for each well. The compound to be tested was subject to 5-fold dilution in 96-well microtiter plate with DMEM complete medium (containing 10% FBS). The starting concentration was 1 μM and six dilutions were obtained. Triplicate wells were set for each dilution and each well contained 100 μl mixture. While wells not containing drugs were set as control. The supernatant was removed and 100 μl of drug was added and incubated for 2 h. Then 100 μl of HIV-1SF162 and HIV-1Ba-L were added to dilute supernatant. The cells were infected for 1 h, free virus was washed out and drug with the same final concentration was added. MVC was used as positive control. The cells were cultured at 37° C. with 5% CO2 for three days. The supernatant was collected, lysed and inactivated with 0.5% Triton X-100. The inhibition effect of drug on HIV-1 replication was detected using p24 antigen capture ELISA method.
# HIV-1SF162 virus strain [6] = experiment: Inhibition of viral replication in HOS-CD4-CCR5 cells infected with HIV-1SF162; assay type: cell-based
# Description: as §4
# [7] = Toxicity test of compounds on HOS-CD4-CCR5 cells (MTT); assay type: cell-based; details: human; HOS-CD4+-CCR5 cells (Table 7)
# Description: as §3
# [8] = male, rat, in vivo; for CLz: 10 mg/kg; for AUC0-t ng/mL * h: po, 20 mg/kg
# Description: (§5) The administration volume was 10 mL/kg and drug was formulated with DMSO/Tween 80/physiological saline (5:5:90, v/v/v). […] 2 h after dosing, the rats ate together.
# (§6) At above time points, 0.3 ml of venous blood was taken from retrobulbar venous plexus of the rat and loaded into EDTA-2K anticoagulative tube. After centrifuged at 11000 rpm for 5 mm, the plasma was separated and frozen at −20° C. in a refrigerator.
# (§7) The concentration of each compound in rat plasma was determined by LC/MS/MS.
# (§8) The pharmacokinetic parameters after administration were calculated by using non-compartment model of WinNonlin 5.3 software (Pharsight Corporation, USA).
# in vivo = details: male, rat
# Description: as §5, §6, §7, §8
# HIV-1SF162 virus strain [9] = experiment: Inhibition activity on TZM-bl cells infected with HIV-1SF162; details: for EC50: Human immunodeficiency virus 1, TZM-bl; for therapeutic index (TI): TZM-bl cells infected with HIV-1SF162; for cytotoxicity in vitro and therapeutic index in words, versus positive control compound: TZM-bl cells infected with HIV-1SF162, conclusion from Table 3
# [10] = Human immunodeficiency virus 1, PBMC cells infected with HIV-1SF162, read-out: EC50
# [11] = Human immunodeficiency virus 1, PBMC cells infected with HIV-1KM018, read-out: EC50
# [12] = Human immunodeficiency virus 1, PBMC cells infected with HIV-1Ba-L, read-out: EC50
# [13] = Human immunodeficiency virus 1, HOS-CD4+-CCR5 cells infected with HIV-1Ba-L, read-out: EC50
# [14] = Human immunodeficiency virus 1, HOS-CD4+-CCR5 cells infected with HIV-1SF162, read-out: EC50
# [15] = Human immunodeficiency virus 1, PBMC
# [16] = PBMC cells infected with HIV-1SF162
# [17] = PBMC cells infected with HIV-1KM018
# [18] = PBMC cells infected with HIV-1Ba-L
# [19] = Human immunodeficiency virus 1, HOS-CD4-CCR5
# [20] = HOS-CD4+-CCR5 cells infected with HIV-1SF162
Structure (SMILES),CC50 [1] [µg/mL],CC50 at 3 days [7] [µg/mL],CLz [8] [mL/min/kg],AUC0-t ng/mL * h [8] [ng·h/mL],bioavailability (in vivo) [%],AUC(0-t) (in vivo; 10 mg/kg) [ng·h/mL],"AUC(0-inf) (in vivo; iv, 10 mg/kg) [ng·h/mL]","AUC(0-t) (in vivo; iv, 10 mg/kg) [ng·h/mL]","Cmax (in vivo; iv, 10 mg/kg) [ng/mL]","MRT (in vivo; iv, 10 mg/kg) [h]","Tmax (in vivo; iv, 10 mg/kg) [h]","half-life (in vivo; iv, 10 mg/kg) [h]","AUC(0-inf) (in vivo; po, 20 mg/kg) [ng·h/mL]","AUC(0-t) (in vivo; po, 20 mg/kg) [ng·h/mL]","Cmax (in vivo; po, 20 mg/kg) [ng/mL]","MRT (in vivo; po, 20 mg/kg) [h]","half-life (in vivo; po, 20 mg/kg) [h]",EC50 (HIV-1SF162 virus strain [9]) [µg/mL],therapeutic index (TI) (HIV-1SF162 virus strain [9]),"cytotoxicity in vitro and therapeutic index in words, versus positive control compound (HIV-1SF162 virus strain [9])",other results
"Cc1nnc(C(C)C)n1C1CC2CCC(C1)N2CC[C@H](NC(=O)C1CCC(F)(F)CC1)c1cccs1 (stereo partly drawn) [Compound 14, 4,4-difluoro-N-[(1S)-3-[exo-3-(3-isopropyl-5-methyl-4H-1,2,4-triazol-4-yl)-8-azabicyclo[3.2.1]octane-8-yl]-1-(thiophen-2-yl)propyl]cyclohexane-1-carboxamide]",> 200,370,23.7,1108,7.85,7050,7060,7050,6840,0.71,0.25,0.77,1190,1110,266,3.33,2.12,0.00359,>55710.31,better than positive control compound,"EC50 (HIV-1SF162 virus strain [2]; [10]): 0.00158 µg/mL; EC50 (HIV-1KM018 virus strain; [11]): 0.00377 µg/mL; EC50 (HIV-1Ba-L virus strain [3]; [12]): 0.0197 µg/mL; CC50 at 7 days ([4]; PHA stimulated PBMC): 268 µg/mL; EC50 (HIV-1Ba-L virus strain [5]; [13]): 0.00074 µg/mL; EC50 (HIV-1SF162 virus strain [6]; [14]): 0.0131 µg/mL; Tmax (in vivo; po, 20 mg/kg): 4 h; bioavailability (in vivo; po, 20 mg/kg): 7.85%"
Cc1nnc(C(C)C)n1C1CC2CCC(C1)N2CC[C@H](NC(=O)C1CCCCC1)c1cccs1 (stereo partly shown) [Compound 16],> 200,343,32.7,1512.3,14.8,5110,5110,5110,4320,0.79,0.25,0.31,1510,1510,631,2.11,1.16,0.0118,>16963.53,comparable with the positive control compound,"EC50 (HIV-1SF162 virus strain [2]; [15]): 0.455 µg/mL; therapeutic index (TI) (HIV-1SF162 virus strain [2]; [16]): 586.3; EC50 (HIV-1KM018 virus strain; [15]): 0.555 µg/mL; therapeutic index (TI) (HIV-1KM018 virus strain; [17]): 481.1; EC50 (HIV-1Ba-L virus strain [3]; [15]): 0.365 µg/mL; therapeutic index (TI) (HIV-1Ba-L virus strain [3]; [18]): 1301.1; CC50 at 7 days [4]: 267 µg/mL; EC50 (HIV-1Ba-L virus strain [5]; [19]): 0.0105 µg/mL; therapeutic index (TI) (HIV-1SF162 virus strain [6]; [20]): 8042; EC50 (HIV-1SF162 virus strain [6]; [19]): 0.0427 µg/mL; Tmax (in vivo; po, 20 mg/kg): 0.25 h; bioavailability (in vivo; po, 20 mg/kg): 14.8%"
"Cc1nnc(C(C)C)n1C1CCN(CC[C@H](NC(=O)C2CCCC2)c2cccs2)CC1 [Compound 17, N-[(1S)-3-[4-(3-isopropyl-5-methyl-4H-1,2,4-triazol-4-yl)-piperidin-1-yl]-1-(thiophen-2-yl)propyl]cyclopentane-1-carboxamide]",> 200,439,,,,,,,,,,2.22,,,,,1.78,0.0129,>15444.02,comparable with the positive control compound,EC50 (HIV-1SF162 virus strain [2]; [10]): 0.0413 µg/mL; therapeutic index (TI) (HIV-1SF162 virus strain [2]; [16]): 10621; EC50 (HIV-1KM018 virus strain; [11]): > 1 µg/mL; therapeutic index (TI) (HIV-1KM018 virus strain; [17]): <438.6; EC50 (HIV-1Ba-L virus strain [3]; [12]): 0.848 µg/mL; therapeutic index (TI) (HIV-1Ba-L virus strain [3]; [18]): 438.6; CC50 at 7 days ([4]; PHA stimulated PBMC): 439 µg/mL; EC50 (HIV-1Ba-L virus strain [5]; [13]): 0.0155 µg/mL; therapeutic index (TI) (HIV-1SF162 virus strain [6]; [20]): 8632; EC50 (HIV-1SF162 virus strain [6]; [14]): 0.0509 µg/mL
"Cc1nnc(C(C)C)n1C1CC2CCC(C1)N2CC[C@H](NC(=O)C1CCCC1)c1cccs1 (stereo partly drawn) [Compound 18, N-[(1S)-3-[exo-3-(3-isopropyl-5-methyl-4H-1,2,4-triazol-4-yl)-8-azabicyclo[3.2.1]octane-8-yl]-1-(thiophen-2-yl)propyl]cyclopentane-1-carboxamide]",> 200,507,104,2801.1,90.5,1550,1600,1550,771,1.98,0.25,1.81,3070,2800,690,2.94,2.05,0.00123,>162601.63,better than positive control compound,"EC50 (HIV-1SF162 virus strain [2]; [15]): 0.0927 µg/mL; therapeutic index (TI) (HIV-1SF162 virus strain [2]; [16]): 3721; EC50 (HIV-1KM018 virus strain; [15]): 0.0699 µg/mL; therapeutic index (TI) (HIV-1KM018 virus strain; [17]): 4935.2; EC50 (HIV-1Ba-L virus strain [3]; [15]): 0.289 µg/mL; therapeutic index (TI) (HIV-1Ba-L virus strain [3]; [18]): 2266.5; CC50 at 7 days [4]: 345 µg/mL; EC50 (HIV-1Ba-L virus strain [5]; [19]): 0.0034 µg/mL; EC50 (HIV-1SF162 virus strain [6]; [19]): 0.0203 µg/mL; Tmax (in vivo; po, 20 mg/kg): 2 h; bioavailability (in vivo; po, 20 mg/kg): 90.5%"
"Cc1nnc(C(C)C)n1C1CC2CCC(C1)N2CC[C@H](NC(=O)C1CCC(F)(F)CC1)c1ccsc1 (stereo partly drawn) [Compound 22, 4,4-difluoro-N-[(1S)-3-[exo-3-(3-isopropyl-5-methyl-4H-1,2,4-triazol-4-yl)-8-azabicyclo[3.2.1]octane-8-yl]-1-(thiophen-3-yl)propyl]cyclohexane-1-carboxamide]",> 200,> 800,40,1206,14.5,4150,4160,4150,3780,0.84,0.25,1,1260,1210,306,2.55,1.55,0.00153,>130718.95,better than positive control compound,"EC50 (HIV-1SF162 virus strain [2]; [15]): 0.00265 µg/mL; EC50 (HIV-1KM018 virus strain; [15]): 0.00533 µg/mL; EC50 (HIV-1Ba-L virus strain [3]; [15]): 0.00513 µg/mL; CC50 at 7 days [4]: 635 µg/mL; EC50 (HIV-1Ba-L virus strain [5]; [19]): 0.00483 µg/mL; EC50 (HIV-1SF162 virus strain [6]; [19]): 0.00915 µg/mL; Tmax (in vivo; po, 20 mg/kg): 2 h; bioavailability (in vivo; po, 20 mg/kg): 14.5%"
